Assay results as given in PubChem BioAssay (NCI).
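A five-concentration, 48-hour dose response in 96-well plates underlies each endpoint, interpolated linearly between surrounding concentrations. GI50 = concentration required for 50% inhibition of growth. Definition used: TGI = concentration required for complete inhibition of growth.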

These compounds were tested on SK-MEL-28 melanoma (assay: NCI anticancer screen, dose series, 48 h).

SMILES | GI50 | TGI
CCN(CC)CCN1CC(O)=C(c2nc(-c3ccc(Cl)cc3)cs2)C1=N | 1.86 µM | 3.49 µM
Cc1cn2c(/C=C3/C(=O)N(C)c4ccccc43)c(C)nc2s1 | 14.2 µM | 53.4 µM

What follows are compounds tested on SK-OV-3 ovarian (assay: NCI anticancer screen, dose series, 48 h).

SMILES | TGI | GI50
O=C1NC(=O)c2ccc([N+](=O)[O-])c3cccc1c23 | 50.9 µM | –
CN(C)CCCn1c2c(c3ccccc3c1=O)C(=O)c1ccccc1-2 | 73.8 µM | 4.14 µM
CN(C)CCNC(=O)c1cccc(C(=O)Nc2ccccc2)c1[N+](=O)[O-] | > 100 µM | –
NC(N)=NCCCn1c2c(c3ccccc3c1=O)C(=O)c1ccccc1-2 | > 100 µM | 34.2 µM
CC(=O)OC1Oc2ccccc2-c2oc(=O)c(-c3cc4ccc(N(C)C)cc4oc3=O)cc21 (centres undefined) | 45.5 µM | 13 µM
CC1(C)C2CC(O)C1(C)CC2=O (centres undefined) | > 100 µM | –
COc1ccc2c(c1)C(=O)c1c-2n(CCCn2ccnc2)c(=O)c2ccccc12 | 4.59 µM | 0.595 µM
O=C(CCl)Nc1ccc(Cl)cc1 | 23 µM | 6.93 µM
O=S(=O)(/N=S(/Nc1ccccc1)C(Cl)Cl)c1ccccc1 (centres undefined) | > 100 µM | –
Fc1cc(F)c(COc2cc(Cn3cnc4c(Cl)nc(Cl)nc43)ccc2C23CC4CC(CC(C4)C2)C3)cc1F | 43.3 µM | 22 µM
COc1ccc(N2C(=O)C3c4[nH]c5ccc(C)cc5c4C4CCC(C(C)(C)C)CC4C3C2=O)cc1 (centres undefined) | 29.5 µM | –
CC/C=C\C[C@@H]1C/C=C2/C(=O)C=C[C@H]2C/C=C\CCCC(=O)O1 | 7.94 µM | 2.49 µM
NC(=S)N/N=C/c1ccc(OC(=O)COc2ccc(Cl)cc2)cn1 | > 100 µM | 40 µM
O=C(N/N=C/c1cccc(O)c1O)c1ccccc1 | > 100 µM | 3.68 µM
c1ccc(C2=NNC3c4ccccc4-c4ccccc4N3C2)cc1 (centres undefined) | > 100 µM | –
COc1ccc(OC)c(/C=C/C(=O)N/N=C/c2ccc(Cl)cc2)c1 | 9.81 µM | 0.0928 µM
O=C1c2ccccc2-c2c1c1ccccc1c(=O)n2Cc1ccccc1 | > 100 µM | –

SMILES | TGI | GI50
COc1ccc(C(=O)c2cc(C)c(OC)c(C)c2)c(OC)c1N(C(=O)C(Cl)Cl)C(=O)C(Cl)Cl | > 100 µM | 0.052 µM
CCN(CC)c1sc(N(CC)CC)c2c1SSSSS2 | 6.98 µM | 3.13 µM
O=C(c1cccc(O)c1O)c1cn(Cc2ccc(F)cc2)c2cccc(O)c12 | 16 µM | 4.49 µM
Nc1ncc(-c2cnn(CCO)c2)c2scc(-c3ccc(NC(=O)Nc4cccc(F)c4)cc3)c12 | 3.99 µM | 0.338 µM
COc1cc(C2=NN(C(C)=O)C(c3ccc(OC(C)=O)cc3OC(C)=O)O2)c(OC(C)=O)c2ccccc12 (centres undefined) | 19.7 µM | 0.649 µM
COC(=O)Nc1nc2ccc(Oc3ccc(NC(=O)Nc4ccccc4)cc3)cc2[nH]1 | 0.3 µM | 0.0696 µM
O=C1c2c(Br)sc(Br)c2C(NC(=O)C(F)(F)F)C1O (centres undefined) | 36.4 µM | –
CCOC(=O)c1cc(/C(=N\O)c2cc(OC)c(OC)c(OC)c2)n2cc(C)cc(C)c12 | 4.8 µM | 1.89 µM
CCN(CC)CCCC(C)Nc1c(C)cnc2cc(Cl)c(C)cc12 (centres undefined) | > 58 µM | 23.2 µM
CC(=O)OC1CC(O)C23COC(O)C1(C)C2CC(O)C1(C)C3C(=O)C(O)C2(C)C(c3ccoc3)CC3OC321 (centres undefined) | > 100 µM | > 100 µM
CCCCCCCC(CC(=O)NC(CO)C(=O)NC(CO)CC(C)C)OC(=O)CC(CCCCCCC)OC(=O)CC(CCCCCCC)OC1OC(C)C(O)C(OC2OC(C)C(O)C(OC(C)=O)C2O)C1O (centres undefined) | 30.8 µM | –
O=C(CP(=O)(c1ccccc1)c1ccccc1)c1cccc(C(=O)CP(=O)(c2ccccc2)c2ccccc2)c1 | 56.1 µM | –
CCc1[nH]c(=O)nc(N)c1-c1ccc(N2CCCCC2)c([N+](=O)[O-])c1 | > 100 µM | –
COC(=O)C(=O)C(C(=O)C(=O)Nc1ccccc1C(N)=O)c1nc2ccc(Cl)cc2[nH]c1=O (centres undefined) | > 100 µM | –
CCC#CC[C@H]1C/C=C2/C(=O)C=C[C@@H]2C/C=C\CCCC(=O)O1 | 7.74 µM | 2.36 µM
CCN(CC)CCN1CC(O)=C(c2nc(-c3ccc(Cl)cc3)cs2)C1=N | 25.2 µM | 4.76 µM
Cc1cn2c(/C=C3/C(=O)N(C)c4ccccc43)c(C)nc2s1 | 31.9 µM | 6.87 µM

What follows are compounds tested on ACHN renal (assay: NCI anticancer screen, dose series, 48 h).

SMILES | TGI | GI50
O=C1NC(=O)c2ccc([N+](=O)[O-])c3cccc1c23 | 33.7 µM | –
CN(C)CCCn1c2c(c3ccccc3c1=O)C(=O)c1ccccc1-2 | 2.15 µM | 0.507 µM
CN(C)CCNC(=O)c1cccc(C(=O)Nc2ccccc2)c1[N+](=O)[O-] | > 100 µM | –
NC(N)=NCCCn1c2c(c3ccccc3c1=O)C(=O)c1ccccc1-2 | 35.2 µM | 18 µM
CC(=O)OC1Oc2ccccc2-c2oc(=O)c(-c3cc4ccc(N(C)C)cc4oc3=O)cc21 (centres undefined) | 23.2 µM | 10.4 µM
CC1(C)C2CC(O)C1(C)CC2=O (centres undefined) | > 100 µM | –
COc1ccc2c(c1)C(=O)c1c-2n(CCCn2ccnc2)c(=O)c2ccccc12 | 1.04 µM | 0.144 µM
COc1cc2oc(-c3ccc(O)cc3)cc(=O)c2c(OC)c1OC | > 100 µM | –
O=C(CCl)Nc1ccc(Cl)cc1 | 10.6 µM | 3.13 µM
O=S(=O)(/N=S(/Nc1ccccc1)C(Cl)Cl)c1ccccc1 (centres undefined) | > 100 µM | –
Fc1cc(F)c(COc2cc(Cn3cnc4c(Cl)nc(Cl)nc43)ccc2C23CC4CC(CC(C4)C2)C3)cc1F | 30.8 µM | 17.1 µM
COc1ccc(N2C(=O)C3c4[nH]c5ccc(C)cc5c4C4CCC(C(C)(C)C)CC4C3C2=O)cc1 (centres undefined) | 25.5 µM | –
CC/C=C\C[C@@H]1C/C=C2/C(=O)C=C[C@H]2C/C=C\CCCC(=O)O1 | 0.372 µM | 0.183 µM
NC(=S)N/N=C/c1ccc(OC(=O)COc2ccc(Cl)cc2)cn1 | > 100 µM | 3.39 µM
O=C(N/N=C/c1cccc(O)c1O)c1ccccc1 | > 100 µM | 0.477 µM
c1ccc(C2=NNC3c4ccccc4-c4ccccc4N3C2)cc1 (centres undefined) | > 100 µM | –
COc1ccc(OC)c(/C=C/C(=O)N/N=C/c2ccc(Cl)cc2)c1 | > 100 µM | 1.61 µM
COc1ccc(C(=O)c2cc(C)c(OC)c(C)c2)c(OC)c1N(C(=O)C(Cl)Cl)C(=O)C(Cl)Cl | > 100 µM | 0.0699 µM
CCN(CC)c1sc(N(CC)CC)c2c1SSSSS2 | 3.28 µM | 1.07 µM
O=C(c1cccc(O)c1O)c1cn(Cc2ccc(F)cc2)c2cccc(O)c12 | 14.9 µM | 3.2 µM
Nc1ncc(-c2cnn(CCO)c2)c2scc(-c3ccc(NC(=O)Nc4cccc(F)c4)cc3)c12 | 4.75 µM | 0.289 µM
COc1cc(C2=NN(C(C)=O)C(c3ccc(OC(C)=O)cc3OC(C)=O)O2)c(OC(C)=O)c2ccccc12 (centres undefined) | > 35.6 µM | 0.447 µM
COC(=O)Nc1nc2ccc(Oc3ccc(NC(=O)Nc4ccccc4)cc3)cc2[nH]1 | > 25 µM | 0.466 µM
O=C1c2c(Br)sc(Br)c2C(NC(=O)C(F)(F)F)C1O (centres undefined) | 84.2 µM | –
CCOC(=O)c1cc(/C(=N\O)c2cc(OC)c(OC)c(OC)c2)n2cc(C)cc(C)c12 | > 100 µM | 3 µM
CCN(CC)CCCC(C)Nc1c(C)cnc2cc(Cl)c(C)cc12 (centres undefined) | 31.5 µM | 5.49 µM
CC(=O)OC1CC(O)C23COC(O)C1(C)C2CC(O)C1(C)C3C(=O)C(O)C2(C)C(c3ccoc3)CC3OC321 (centres undefined) | > 100 µM | 0.685 µM
CCCCCCCC(CC(=O)NC(CO)C(=O)NC(CO)CC(C)C)OC(=O)CC(CCCCCCC)OC(=O)CC(CCCCCCC)OC1OC(C)C(O)C(OC2OC(C)C(O)C(OC(C)=O)C2O)C1O (centres undefined) | 31.4 µM | –
O=C(CP(=O)(c1ccccc1)c1ccccc1)c1cccc(C(=O)CP(=O)(c2ccccc2)c2ccccc2)c1 | > 100 µM | –
CCc1[nH]c(=O)nc(N)c1-c1ccc(N2CCCCC2)c([N+](=O)[O-])c1 | > 100 µM | –
